Measured values taken from publication PMC6538953, “Metal Ions Activate the Human Taste Receptor TAS2R7” (Chemical Senses, 2019).
Substitutions are numbered along the chain they refer to. “Also recorded” adds a separate entry of the source. Where a name gives a salt, the structure may show the parent alone. Read-outs that look alike come from different tables or passages of the source.

Assays:
[1] = target: T1, human TAS2R7 (Homo sapiens, UniProt Q9NYW3); parameters: method as in Meyerhof et al. 2010; settings: ref Meyerhof et al. 2010; cited from earlier work
T1 construct: first 45 residues of rat somatostatin receptor 3 (signal peptide) (N); expressed in transfected cells; host or cells: HEK293 (PEAKrapid, ATCC CRL-2828)
T1 sequence (Q9NYW3 1-318): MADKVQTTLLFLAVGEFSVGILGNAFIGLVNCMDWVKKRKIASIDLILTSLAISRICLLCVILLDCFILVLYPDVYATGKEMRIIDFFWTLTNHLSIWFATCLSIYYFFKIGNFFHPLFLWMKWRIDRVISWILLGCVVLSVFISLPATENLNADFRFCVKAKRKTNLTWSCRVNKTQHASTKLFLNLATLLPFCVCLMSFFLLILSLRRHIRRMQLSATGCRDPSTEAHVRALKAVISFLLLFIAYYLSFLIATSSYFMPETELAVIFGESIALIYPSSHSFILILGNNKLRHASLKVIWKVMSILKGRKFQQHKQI

[2] = target: T1, human TAS2R7; experiment: Calcium mobilization assay, HEK293 cells transfected with TAS2R7 and Gα16-gust44; type: cell-based; settings: for Compounds triggering detectable responses in cells transfected with TAS2R7: at the concentrations reported previously (Meyerhof et al. 2010), Figure 4A; for Activation of TAS2R7 by metal ions: 20 mM, Figure 1A,B; for Dose dependence of TAS2R7 response: Figure 2A,C
Text: (§1) The coding sequences of human TAS2Rs were amplified from human genomic DNA, then subcloned into pcDNA3.1(+) vector, with the herpes simplex virus glycoprotein D epitope (HSV) at the C-terminal and a signal peptide consisting of the first 45 amino acid residues of the rat somatostatin receptor 3 at the N-terminal, essentially as described previously ([Bufe et al. 2002]). Point mutations in human TAS2R7 (NCBI Reference Sequence: NP_076408.1) were constructed by site-directed mutagenesis. All the constructs were confirmed by Sanger sequencing.
All tested compounds were purchased from Sigma–Aldrich, with the exception of diphenidol hydrochloride (Reagent World) and L-praziquantel (manufactured by Shaoxing Pharmaceutical Co. Ltd.). All the metal ions were dissolved in the assay solution (130 mM NaCl, 5 mM KCl, 2 mM CaCl2, and 10 mM glucose; pH 7.4) unless specified otherwise, and the bitter compounds (diphenidol, quinine, and chlorphenamine) were dissolved first in dimethyl sulfoxide (DMSO) as stock solution and then diluted with the assay solution; the final DMSO concentration was below 0.5%, with the exception of cromolyn, which is dissolved in the assay solution directly. For our initial screening (Table 1), Hanks’ balanced salt solution (HBSS, ThermoFisher, catalog no. 14025134) supplemented with 10 mM hydroxyethyl piperazineethanesulfonic acid (HEPES) were used as the assay buffer.
(§2) Human embryonic kidney 293 (PEAKrapid, ATCC # CRL-2828) cells were cultured in Opti-MEM medium with 4% fetal bovine serum. One day before transfection, cells were seeded on a 96-well plate at a density of 25 000 per well. Cells were then transiently transfected with a TAS2R construct (0.1 µg/well) along with a G protein Gα16-gust44 (0.1 µg/well) construct by Lipofectamine 2000 (0.5 µl/well). For controls, only Gα16-gust44 was used (mock transfection). Twenty-four hours after transfection, cells were washed with HBSS including 10 mM HEPES and loaded with Fluo-4 in the dark for 1 h. After incubation, cells were washed 2 times with HBSS (including 10 mM HEPES), incubated in the dark for another 30 min, and then washed with assay solution once more before running the assay using a FlexStation III reader. Relative fluorescence units (excitation at 494 nm, emission at 516 nm, and auto cutoff at 515 nm) were read every 2 s for 2 min. Calcium mobilization traces were recorded.
(§3) Calcium mobilization traces were raw data obtained from single wells. Changes in fluorescence (ΔF) were calculated as the peak fluorescence minus baseline fluorescence ([Lei et al. 2015]). The calcium mobilization was quantified as the percentage of change (ΔF) relative to baseline (F). […] Calcium mobilization traces and bar graphs along with dose-dependent plots were all generated by GraphPad Prism 7. Analysis of variance with Dunnett’s multiple comparisons test was used for statistical analysis. *P < 0.05.
To determine whether a TAS2R responds to metal ions, we expressed all 25 human bitter receptors individually in HEK293 cells (PEAKrapid) by transient transfection of a TAS2R along with a coupling chimeric G protein, Gα16-gust44. All TAS2Rs were cloned from human genomic DNA. Activation of human TAS2Rs was monitored by the calcium mobilization assay ([Lei et al. 2015]). We tested these receptors individually for their responses toward metal ions: ZnSO4 (20 mM), CuSO4 (20 mM), and MgCl2 (20 mM) (Table 1, Figure 1A). […] To determine the breadth of tuning of TAS2R7 toward metal ions, we also tested MnCl2 (20 mM), Al2(SO4)3 ([…]), and CaCl2 (20 mM) (Figure 1B).

[3] = target: T2, human TAS2R14 (Homo sapiens, UniProt Q9NYV8); experiment: Calcium mobilization assay, HEK293 cells transfected with TAS2R14 and Gα16-gust44; type: cell-based; settings: 0.5 mM; Figure 3B
T2 construct: first 45 residues of rat somatostatin receptor 3 (signal peptide) (N); expressed in transfected cells; host or cells: HEK293 (PEAKrapid, ATCC CRL-2828)
T2 sequence (Q9NYV8 1-317): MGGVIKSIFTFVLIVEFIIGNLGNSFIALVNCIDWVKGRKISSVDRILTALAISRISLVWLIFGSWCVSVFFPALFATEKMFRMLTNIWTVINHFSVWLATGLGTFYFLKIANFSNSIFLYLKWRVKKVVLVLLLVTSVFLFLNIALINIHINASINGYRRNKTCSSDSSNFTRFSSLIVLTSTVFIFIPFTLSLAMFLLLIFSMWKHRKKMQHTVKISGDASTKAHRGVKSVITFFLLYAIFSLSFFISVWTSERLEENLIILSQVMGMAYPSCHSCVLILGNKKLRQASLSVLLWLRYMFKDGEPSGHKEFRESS
Text: as §1, with “sequencing. […]” for “sequencing.”
(§4) Human embryonic kidney 293 (PEAKrapid, ATCC # CRL-2828) cells were cultured in Opti-MEM medium with 4% fetal bovine serum. […] After incubation, cells were washed 2 times with HBSS (including 10 mM HEPES), incubated in the dark for another 30 min, and then washed with assay solution once more before running the assay using a FlexStation III reader. Relative fluorescence units (excitation at 494 nm, emission at 516 nm, and auto cutoff at 515 nm) were read every 2 s for 2 min. Calcium mobilization traces were recorded.
(§5) Calcium mobilization traces were raw data obtained from single wells. Changes in fluorescence (ΔF) were calculated as the peak fluorescence minus baseline fluorescence ([Lei et al. 2015]). The calcium mobilization was quantified as the percentage of change (ΔF) relative to baseline (F). […]

[4] = target: T3, human TAS2R7 E264^7.32L mutant (Homo sapiens, UniProt Q9NYW3, E264L); experiment: Calcium mobilization assay, TAS2R7 mutant E264L; type: cell-based; settings: 20 mM metal ions except 0.16 mM Al2(SO4)3; cromolyn 10 mM; Figure 6B
T3 construct: signal peptide: first 45 amino acid residues of rat somatostatin receptor 3 (N); expressed in transfected cells; host or cells: HEK293 PEAKrapid (ATCC CRL-2828), transient, co-transfected with Gα16-gust44
T3 sequence (Q9NYW3 1-318 E264L): T1 sequence (Q9NYW3 1-318) with E264L
Text: as §1, §2
as §3, with “0.05. […]” for “0.05.”

[5] = target: T4, human TAS2R7 E264^7.32K mutant (Homo sapiens, UniProt Q9NYW3, E264K); experiment: Calcium mobilization assay, TAS2R7 mutant E264K; type: cell-based; settings: 20 mM metal ions except 0.16 mM Al2(SO4)3; cromolyn 10 mM; Figure 6B
T4 construct: signal peptide: first 45 amino acid residues of rat somatostatin receptor 3 (N); expressed in transfected cells; host or cells: HEK293 PEAKrapid (ATCC CRL-2828), transient, co-transfected with Gα16-gust44
T4 sequence (Q9NYW3 1-318 E264K): T1 sequence (Q9NYW3 1-318) with E264K
Text: as §1, §2, §3
To assess the importance of these residues, we performed site-directed mutagenesis. We mutated the negatively charged residues E16^1.42, E264^7.32, and E271^7.39 to Q (glutamine), K (lysine), or L (leucine). The facing H94^3.37 was mutated to F (phenylalanine). HEK293 cells that expressed mutant receptors along with Gα16-gust44 were examined for their responses to metal ions (20 mM for all except 0.16 mM Al2(SO4)3) and cromolyn (10 mM, as a positive control) to assess receptor’s function. To determine the expression level of each receptor, we stained the wild-type or mutant receptor-transfected cells using an anti-HSV antibody since all the receptors are tagged with HSV at c-terminal. […]

[6] = target: T5, human TAS2R7 H94^3.37F mutant (Homo sapiens, UniProt Q9NYW3, H94F); experiment: Calcium mobilization assay, TAS2R7 mutant H94F; type: cell-based; settings: 20 mM metal ions except 0.16 mM Al2(SO4)3; Figure 6B
T5 construct: signal peptide: first 45 amino acid residues of rat somatostatin receptor 3 (N); expressed in transfected cells; host or cells: HEK293 PEAKrapid (ATCC CRL-2828), transient, co-transfected with Gα16-gust44
T5 sequence (Q9NYW3 1-318 H94F): T1 sequence (Q9NYW3 1-318) with H94F
Text: as §1, §4, §5

[7] = assay solution containing calcium, Figures 3A, 4C, read-out: EC50, TAS2R7, in the presence of calcium
[8] = assay solution containing no calcium, Figures 3A, 4C, read-out: EC50, TAS2R7, in the absence of calcium
[9] = assay solution with 2 mM CaCl2, Figure 2, read-out: EC50, TAS2R7 concentration-response
[10] = Supplementary Figure S2, read-out: EC50, TAS2R7, comparison of anions

Compound	Dose dependence of TAS2R7 response [2]	EC50 [2, 7]	EC50 [2, 8]	EC50 [2, 9]	other results
C=C[C@H]1C[N@@]2CC[C@H]1C[C@H]2[C@H](O)c1ccnc2ccc(OC)cc12 [quinine, reference compound]					TAS2R7 reported to respond to bitter compounds [1]: respond; Compounds triggering detectable responses in cells transfected with TAS2R7 [2]: none
CN(C)CCC(c1ccc(Cl)cc1)c1ccccn1 (stereo not drawn) [chlorphenamine, reference compound]					TAS2R7 reported to respond to bitter compounds [1]: respond; Compounds triggering detectable responses in cells transfected with TAS2R7 [2]: none
[Ca+2].[Cl-].[Cl-] [CaCl2]	dose-dependent responses	7.56 mM	4.7 mM	5.27 ± 0.5 mM	Activation of TAS2R7 by metal ions [2]: activated the receptor
OC(CCCN1CCCCC1)(c1ccccc1)c1ccccc1 [diphenidol, diphenidol hydrochloride, reference compound]					TAS2R7 reported to respond to bitter compounds [1]: respond; Compounds triggering detectable responses in cells transfected with TAS2R7 [2]: none
O=C(C1CCCCC1)N1CC(=O)N2CCc3ccccc3[C@@H]2C1 [L-praziquantel]					Response amplitude of TAS2R14 in the absence versus presence of calcium [3]: reduced response amplitude
O=S(=O)([O-])[O-].[Cu+2] [CuSO4]	dose-dependent responses	1.89 mM	0.85 mM	1.04 ± 0.36 mM	
[Cl-].[K+] [KCl, potassium chloride]					Activation of TAS2R7 by monovalent salt ([2]; any concentration tested, Figures 1C,D and 2A): did not activate the receptor; also recorded: not responsive
[Cl-].[Cl-].[Zn+2] [ZnCl2]					EC50 [2, 10]: 3.42 mM
[Cl-].[Cl-].[Mg+2] [MgCl2]	dose-dependent responses	7.84 mM	5.78 mM	6.07 ± 1.07 mM	Maximal response of TAS2R7 in the absence versus presence of calcium ([2]; assay solution without calcium compared with calcium): smaller
O=S(=O)([O-])[O-].[Zn+2] [ZnSO4]	dose-dependent responses	2.41 mM	3.49 mM		Response of E264L mutant receptor [4]: responded; EC50 [2, 10]: 3.21 mM; Response of E264K mutant receptor [5]: specific loss of responses
[Cl][Mn][Cl] [MnCl2]	dose-dependent responses	2.24 mM	7.19 mM	6.59 ± 1.73 mM	Response of H94F mutant receptor [6]: diminished responses; Activation of TAS2R7 by metal ions [2]: activated the receptor; Response of E264K mutant receptor [5]: still responsive
